Type: in vivo, BALB/c mice
Details: mouse antiallergy test, days 0 to 22; FIG. 9
Procedure: Body weight was determined with a scale on days 0, 7, 14, and 22. General symptoms were observed daily from day 0 to day 22. Blood plasma analysis was conducted by measuring the OVA-specific IgE level using plasma obtained by centrifuging blood drawn from the ophthalmic vein on days 0, 14, 18, and 22.

## O=P1(N(CCCl)CCCl)NCCCO1 (stereo not shown) [cyclophosphamide]
  change in body weights: reduction in the body weight

Reference: patent US7879370B2, “Composition of which chief ingredient is polysaccharides having an immunoregulatory function” (Merican Corporation, priority 2006, dated 2011)
